Source: the CheMixHub ionic liquid set

Assay: xn = mol fraction of the nth substance listed
Settings: 100 kPa

CCCC[n+]1ccc(C)cc1.[Br-] + CO/N=C(\C(=O)N[C@@H]1C(=O)N2C(C(=O)[O-])=C(CSc3nc(=O)c(=O)[n-]n3C)CS[C@H]12)c1csc(N)n1.[Na+].[Na+] + O
viscosity [mPa·s]
Settings	288.15 K	293.15 K	298.15 K	303.15 K	308.15 K
x2 = 0, x1 = 0.0007903	1.165	1.024	0.907	0.813	0.734
x2 = 0, x1 = 0.001191	1.176	1.037	0.919	0.824	0.745
x2 = 0, x1 = 0.001595	1.195	1.044	0.926	0.833	0.75
x2 = 0.0008523, x1 = 0.0007896	1.293	1.134	0.998	0.892	0.805
x2 = 0.0008581, x1 = 0.00119	1.321	1.176	1.024	0.918	0.827
x2 = 0.001389, x1 = 0.0007891	1.39	1.219	1.077	0.965	0.863
x2 = 0.001401, x1 = 0.001593	1.423	1.241	1.103	0.989	0.884
x2 = 0.001946, x1 = 0.0007887	1.504	1.31	1.157	1.035	0.931
x2 = 0.001971, x1 = 0.001189	1.511	1.342	1.183	1.055	0.948
x2 = 0.001975, x1 = 0.001592	1.545	1.355	1.192	1.065	0.954
x2 = 0.002543, x1 = 0.0007882	1.632	1.427	1.256	1.12	1.007
x2 = 0.002544, x1 = 0.001591	1.673	1.464	1.295	1.152	1.031
x2 = 0.003109, x1 = 0.001187	1.806	1.567	1.379	1.224	1.096
x2 = 0.003138, x1 = 0.0007878	1.767	1.543	1.364	1.213	1.086
x2 = 0.003151, x1 = 0.00159	1.823	1.589	1.399	1.244	1.113
x2 = 0.003944, x1 = 0.001186	2.024	1.764	1.544	1.369	1.222
x2 = 0.003953, x1 = 0.0007871	1.993	1.729	1.519	1.351	1.208
x2 = 0.003986, x1 = 0.001589	2.106	1.787	1.577	1.395	1.245
x2 = 0.004811, x1 = 0.001588	2.346	2.022	1.772	1.562	1.389
x2 = 0.004834, x1 = 0.0007864	2.266	1.959	1.718	1.524	1.35
x2 = 0.004855, x1 = 0.001185	2.32	2.01	1.757	1.552	1.38
x2 = 0.005536, x1 = 0.0007859	2.52	2.173	1.904	1.68	1.492
x2 = 0.005537, x1 = 0.001184	2.56	2.232	1.937	1.706	1.514
x2 = 0.005566, x1 = 0.001586	2.63	2.267	1.983	1.738	1.544
